# Laboratory results from US6656500B2, “Capsule system” (Allergan, Inc., priority 1999, dated 2003).
# Columns and labels:
# [1] = Solubility of Tazarotene in water; format: physicochemical
# Source text: The invention is directed to capsule systems for the delivery of active agents, particularly retinoids. In a preferred example, it is known that the compound Tazarotene, known chemically as ethyl 6-[(4,4-dimethylthiochroman-6-yl)ethynyl]-nicotinate, having the molecular formula C21H21NO2S, is active in the treatment of acne and psoriasis. […] However, the solubility of Tazarotene in water is negligible.
# [2] = Amount of Tazarotene solubilized in caprylic/capric triglyceride per capsule; format: physicochemical; conditions: caprylic/capric triglyceride vehicle
# Source text: Importantly, the retinoid agent, Tazarotene, is fully dissolved in the vehicle in a conventional manner before incorporation into the capsule shell. The total dissolution of Tazarotene in the vehicle facilitates absorption from the gastro-intestinal tract by eliminating the need for drug dissolution prior to absorption.
# [3] = women of child-bearing age who just get off treatment; cited from earlier work
solubility in water [1],amount effectively solubilized in a capsule [2],SMILES,typical precautionary pregnancy wash-out period [3]
negligible,up to 34 mg,"CCOC(=O)c1ccc(C#Cc2ccc3c(c2)C(C)(C)CCS3)nc1 [Tazarotene, ethyl 6-[(4,4-dimethylthiochroman-6-yl)ethynyl]-nicotinate]",–
–,–,COc1cc(C)c(/C=C/C(C)=C/C=C/C(C)=C/C(=O)O)c(C)c1C [acitretin],three years
–,–,CC1=C(/C=C/C(C)=C/C=C/C(C)=C\C(=O)O)C(C)(C)CCC1 [isotretinoin],one month
